Source: publication PMC8481687, “Anti-diabetic Potential of a Stigmasterol From the Seaweed Gelidium spinosum and Its Application in the Formulation of Nanoemulsion Conjugate for the Development of Functional Biscuits” (Frontiers in Nutrition, 2021)
≈ marks a conversion by molar mass, not a printed value.

Target: α-amylase
Assay: starch hydrolysis, dinitrosalicylic acid assay at […] nm
Format: biochemical

Compound: CC[C@H](/C=C/[C@@H](C)[C@H]1CC[C@H]2[C@@H]3CC=C4C[C@@H](O)CC[C@]4(C)[C@H]3CC[C@]12C)C(C)C [stigmasterol]
- IC50: 89.27 mg/L (≈ 216 µM)
